Results published in patent publication US20070078263A1, “BIARYL SUBSTITUTED HETEROCYCLE INHIBITORS OF LTA4H FOR TREATING INFLAMMATION” (deCODE Chemistry, Inc., priority 2005, published 2007).
Counter-ions that a name gives are not always drawn.

Biological target: T1, human LTA4 hydrolase (Homo sapiens, UniProt P09960)
T1 construct: A human LTA4 hydrolase full-length cDNA clone (NM 000895) was purchased; His tag (6xHis of vector pDEST17); made in house; host or cells: Escherichia coli BL21-AI
T1 sequence (P09960 1-611): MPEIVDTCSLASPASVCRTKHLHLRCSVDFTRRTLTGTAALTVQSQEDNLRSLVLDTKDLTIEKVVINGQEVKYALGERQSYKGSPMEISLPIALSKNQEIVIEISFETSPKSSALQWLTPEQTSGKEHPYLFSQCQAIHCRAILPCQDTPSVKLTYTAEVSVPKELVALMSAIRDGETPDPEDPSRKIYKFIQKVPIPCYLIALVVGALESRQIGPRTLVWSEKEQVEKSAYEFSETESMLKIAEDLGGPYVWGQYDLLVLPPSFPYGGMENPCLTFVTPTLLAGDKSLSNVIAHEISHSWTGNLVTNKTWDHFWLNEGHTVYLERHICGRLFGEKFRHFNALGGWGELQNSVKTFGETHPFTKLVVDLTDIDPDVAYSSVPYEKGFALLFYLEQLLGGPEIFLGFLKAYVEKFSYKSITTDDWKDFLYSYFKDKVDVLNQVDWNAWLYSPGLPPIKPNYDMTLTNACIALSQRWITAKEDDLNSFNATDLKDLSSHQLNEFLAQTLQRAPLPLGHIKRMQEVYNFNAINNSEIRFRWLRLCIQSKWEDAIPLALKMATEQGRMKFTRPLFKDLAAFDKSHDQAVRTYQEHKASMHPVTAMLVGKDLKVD
Experiment: In vitro assay testing inhibitory activity against purified recombinant human LTA4 hydrolase (LTB4 formed, LC-MS/MS);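 note: 200 nM enzyme preincubated 10 min at room temperature with serial inhibitor dilutions in pH 8.0 Tris buffer with BSA and 10% DMSO, then 2 µM LTA4 added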
Assay type: biochemical
Conditions: not given

Row | Structure (SMILES) | IC50
1 | c1ccc(CNc2ccc(OC[C@H]3CCCN3)cc2)cc1 [Example 48, Benzyl-[4-((R)-1-pyrrolidin-2-ylmethoxy)-phenyl]-amine] | < 5 µM
2 | O=C(O)CCCN1CCCC[C@@H]1COc1ccc(Oc2ccc(Cl)cc2)cc1 [Example 81, 4-{(R)-2-[4-(4-Chloro-phenoxy)-phenoxymethyl]-piperidin-1-yl}-butyric acid hydrochloride] | < 5 µM

Same assay, conditions: recombinant human LTA4 hydrolase 200 nM, LTA4 2 μM; read-out: AvgIC50

Row | IC50 | Structure (SMILES)
3 | < 5 µM | c1ccc(Cc2ccc(OCCC3CCCCN3)cc2)cc1 (racemic) [Example 72, (+/−)-2-[(4-Benzylphenoxy)ethyl]-piperidine hydrochloride]
4 | < 5 µM | Clc1ccc(Cc2ccc(OCC3CCCCN3)cc2)cc1 (stereo in doubt) [Example 165, (S)-2-[4-(4-Chlorobenzyl)-phenoxymethyl]-piperidine hydrochloride]
5 | < 5 µM | Clc1ccc(Cc2ccc(OCC3CCCCN3)cc2)cc1 (stereo in doubt) [Example 166, (R)-2-[4-(4-Chlorobenzyl)-phenoxymethyl]-piperidine hydrochloride]
6 | < 5 µM | c1ccc(Cc2ccc(OC[C@H]3CCCN3Cc3ccncc3)cc2)cc1 [Example 6, 4-[(R)-2-(4-benzyl-phenoxymethyl)-pyrrolidin-1-ylmethyl]-pyridine]
7 | < 5 µM | COC(=O)CCN1CCC[C@@H]1COc1ccc(Cc2ccccc2)cc1 [Example 7, 3-[(R)-2-(4-benzyl-phenoxymethyl)-pyrrolidin-1-yl]-propionic acid methyl ester]
8 | < 5 µM | FC(F)(F)Oc1ccc(Oc2ccc(OC[C@H]3CCCN3)cc2)cc1 [Example 11, (R)-2-[4-(4-Trifluoromethoxy-phenoxy)-phenoxymethyl]-pyrrolidine hydrochloride]
9 | < 5 µM | c1ccc(-c2ccc(Oc3ccc(OC[C@H]4CCCN4)cc3)cc2)cc1 [Example 12, (R)-2-[4-(Biphenyl-4-yloxy)-phenoxymethyl]-pyrrolidine hydrochloride]
10 | < 5 µM | Cc1ccc(Oc2ccc(OC[C@H]3CCCN3)cc2)cc1 [Example 14, (R)-2-(4-p-Tolyloxy-phenoxymethyl)-pyrrolidine hydrochloride]
11 | < 5 µM | N#Cc1ccc(Oc2ccc(OC[C@H]3CCCN3)cc2)cc1 [Example 15, 4-[4-((R)-1-Pyrrolidin-2-ylmethoxy)-phenoxy]-benzonitrile hydrochloride]
12 | < 5 µM | CC(=O)c1ccc(Oc2ccc(OC[C@H]3CCCN3)cc2)cc1 [Example 17, 1-{4-[4-((R)-1-Pyrrolidin-2-ylmethoxy)-phenoxy]-phenyl}-ethanone hydrochloride]
13 | < 5 µM | O=C(O)CN1CCC[C@@H]1COc1ccc(Oc2ccc(Cl)cc2)cc1 [Example 18, {(R)-2-[4-(4-Chloro-phenoxy)-phenoxymethyl]-pyrrolidin-1-yl}-acetic acid hydrochloride]
14 | < 5 µM | FC(F)(F)c1ccc(Oc2ccc(OC[C@@H]3CCCN3)cc2)cc1 [Example 24, (S)-2-[4-(4-trifluoromethyl-phenoxy)-phenoxymethyl]-pyrrolidine]
15 | < 5 µM | O=C(O)CCCN1CCC[C@H]1COc1ccc(Oc2ccc(C(F)(F)F)cc2)cc1 [Example 25]
16 | < 5 µM | O=C(O)CCN1CCC[C@H]1COc1ccc(Oc2ccc(C(F)(F)F)cc2)cc1 [Example 26, (S)-2-[4-(4-trifluoromethyl-phenoxy)-phenoxymethyl]-pyrrolidine-1-yl}propionic acid sodium salt]
17 | < 5 µM | O=C(O)CN1CCC[C@@H]1COc1ccc(Oc2ccc(C(F)(F)F)cc2)cc1 [Example 28, (R)-2-[4-(4-trifluoromethyl-phenoxy)-phenoxymethyl]-pyrrolidine-1-yl)acetic acid sodium salt]
18 | < 5 µM | O=C(O)CCN1CCC[C@@H]1COc1ccc(Oc2ccc(C(F)(F)F)cc2)cc1 [Example 29, (R)-2-[4-(4-trifluoromethyl-phenoxy)-phenoxymethyl]-pyrrolidine-1-yl}propionic acid sodium salt]
19 | < 5 µM | Cc1noc(CCCN2CCC[C@@H]2COc2ccc(Cc3ccccc3)cc2)n1 [Example 31]
20 | < 5 µM | Cc1noc(CCCN2CCC[C@H]2COc2ccc(Cc3ccccc3)cc2)n1 [Example 32]
21 | < 5 µM | OCCCCN1CCC[C@H]1COc1ccc(Cc2ccccc2)cc1 [Example 33, 4-[(S)-2-(4-Benzyl-phenoxymethyl)-pyrrolidin-1-yl]-butan-1-ol]
22 | 5 to 20 µM | O=C(O)CCN1CCC[C@H]1COc1ccc(Cc2ccccc2)cc1 [Example 34, 3-[(S)-2-(4-Benzyl-phenoxymethyl)-pyrrolidin-1-yl]-propionic acid HCl salt]
23 | < 5 µM | O=C(O)CN1CCC[C@H]1COc1ccc(Cc2ccccc2)cc1 [Example 36, [(S)-2-(4-Benzyl-phenoxymethyl)-pyrrolidin-1-yl]-acetic acid TFA salt]

Row | IC50 | Structure (SMILES)
24 | < 5 µM | CC(=O)NCCCN1CCC[C@H]1COc1ccc(Oc2ccc(Cl)cc2)cc1 [Example 38, N-(3-{(S)-2-[4-(4-Chloro-phenoxy)-phenoxymethyl]-pyrrolidin-1-yl}-propyl)-acetamide HCl]
25 | < 5 µM | c1ccc(Cc2ccc(NC[C@H]3CCCN3)cc2)cc1 [Example 41, (4-Benzyl-phenyl)-(R)-1-pyrrolidin-2-ylmethyl-anine]
26 | < 5 µM | c1ccc(Oc2ccc(SC[C@H]3CCCN3)cc2)cc1 [Example 43, (R)-2-(4-Phenoxy-phenylsulfanylmethyl)-pyrrolidine]
27 | < 5 µM | c1ccc(Oc2ccc(OC[C@H]3CCCN3)cc2)cc1 [Example 45, (R)-2-(4-Phenoxy-phenoxymethyl)-pyrrolidine]
28 | 5 to 20 µM | O=C(c1ccccc1)c1ccc(OC[C@H]2CCCN2)cc1 [Example 46, Phenyl-[4-((R)-1-pyrrolidin-2-ylmethoxy)-phenyl]-methanone]
29 | 5 to 20 µM | O=C(Cc1ccccc1)c1ccc(OC[C@H]2CCCN2)cc1 [Example 47, 2-Phenyl-1-[4-((R)-1-pyrrolidin-2-ylmethoxy)-phenyl]-ethanone]
30 | < 5 µM | COC(=O)CCN1CCCC[C@H]1COc1ccc(Oc2ccc(Cl)cc2)cc1 [Example 58, 3-{(S)-2-[4-(4-Chloro-phenoxy)-phenoxymethyl]-piperidin-1-yl}-propionic acid methyl ester]
31 | < 5 µM | O=C(O)CCN1CCCC[C@H]1COc1ccc(Oc2ccc(Cl)cc2)cc1 [Example 59, 3-{(S)-2-[4-(4-Chloro-phenoxy)-phenoxymethyl]-piperidin-1-yl}-propionic acid hydrochloride]
32 | < 5 µM | O=C(O)CN1CCCC[C@H]1COc1ccc(Oc2ccc(Cl)cc2)cc1 [Example 62, {(S)-2-[4-(4-Chloro-phenoxy)-phenoxymethyl]-piperidin-1-yl}-acetic acid hydrochloride]
33 | < 5 µM | Clc1ccc(Oc2ccc(OC[C@@H]3CCCCN3Cc3ncno3)cc2)cc1 [Example 63, (S)-2-[4-(4-Chloro-phenoxy)-phenoxymethyl]-1-[1,2,4]oxadiazol-5-ylmethyl-piperidine hydrochloride]
34 | < 5 µM | O=C(O)CCCN1CCC[C@@H]1COc1ccc(Cc2ccc(Cl)cc2)cc1 [Example 65, 4-{(R)-2-[4-(4-Chloro-benzyl)-phenoxymethyl]-pyrrolidin-1-yl}-butyric acid]
35 | < 5 µM | c1ccc(Cc2ccc(OCC[C@@H]3CCCCN3)cc2)cc1 [Example 71, (S)-2-[(4-Benzylphenoxy)ethyl]-piperidine hydrochloride]
36 | < 5 µM | c1ccc(CN2CCNC(COc3ccc(Oc4ccccc4)cc3)C2)cc1 (stereo not drawn) [Example 75, dihydrochloride]
37 | < 5 µM | c1ccc(Oc2ccc(OCC3CNCCN3)cc2)cc1 (stereo not drawn) [Example 76, dihydrochloride]
38 | < 5 µM | c1cc(-c2ccc(Cc3ccc(OC[C@H]4CCCCN4)cc3)cc2)cs1 [Example 78, (R)-2-[4-(4-Thiophen-3-yl-benzyl)-phenoxymethyl]-piperidine hydrochloride]
39 | < 5 µM | O=C1CC[C@@H](COc2ccc(Cc3ccccc3)cc2)N1 [Example 83, (S) 5-(4-Benzyl-phenoxymethyl)-pyrrolidin-2-one hydrochloride salt]
40 | < 5 µM | O=C1CC[C@H](COc2ccc(Cc3ccccc3)cc2)N1 [Example 84, (R) 5-(4-Benzyl-phenoxymethyl)-pyrrolidin-2-one]
41 | 5 to 20 µM | c1ccc(CO[C@H]2CN[C@H](COc3ccc(Oc4ccccc4)cc3)C2)cc1 [Example 85]
42 | < 5 µM | O[C@H]1CN[C@H](COc2ccc(Oc3ccccc3)cc2)C1 [Example 86, (3R,5S)-5-(4-Phenoxy-phenoxymethyl)-pyrrolidin-3-ol]
43 | < 5 µM | c1ncc(-c2ccc(Oc3ccc(OC[C@@H]4CCCN4)cc3)cc2)o1 [Example 89, 5-{4-[4-((S)-1-Pyrrolidin-2-ylmethoxy)-phenoxy]-phenyl}-oxazole]
44 | 5 to 20 µM | Clc1ccc(COc2ccc(OC[C@H]3CCCN3)cc2)c(Cl)c1 [Example 91, (R)-2-[4-(2,4-Dichloro-benzyloxy)-phenoxymethyl]-pyrrolidine hydrogen chloride salt]

Row | Structure (SMILES) | IC50
45 | c1ccc(Nc2ccc(OC[C@H]3CCCN3)cc2)cc1 [Example 44, Phenyl-[4-((R)-1-pyrrolidin-2-ylmethoxy)-phenyl]-amine] | < 5 µM
